Source: PubChem BioAssay AID2060614 (Molecular Pharmacology Branch, DTP, NCI, 2025)
Where “and” joins values, the source holds several entries; their conditions need not be identical. Equal entries are not always repeated.

System: 598228-144-R-J1-PDC complex spheroids, viability
Assay: Anticancer human tumor 598228-144-R-J1-PDC patient-derived serous endometrial adenocarcinoma cell line growth inhibition [CLK]
Conditions: for viability, T/C: stronger effect = lower value
From the text: A high-throughput screen of multi-cell type tumor spheroids was designed to identify active combinations of […] and targeted small molecules. Complex spheroids include a stromal component modeled by human endothelial cells (HUVEC) and fibroblasts modeled by human mesenchymal stem cells (MSCs). The concentration ranges selected for each drug and investigational agent were based upon clinically achievable concentrations if the clinical Cmax of the agent was known.
Compounds. The drugs and investigational agents: cirtuvivint (SM08502; NSC835563), CC-671 (NSC850746), vemurafenib (NSC761431), tapotoclax (NSC804041), sotorasib (NSC818433), adagrasib (NSC831453), MRTX-1133 (NSC836407), BAY2416964 (NSC825713), copanlisib (NSC816437), inavolisib (NSC800729), abemaciclib (NSC768073), osimertinib (NSC779217), entinostat (NSC756642), eltanexor (KPT-8602, NSC794443), venetoclax (NSC766270), ceralasertib (NSC777638), bortezomib (NSC756655), olaparib (NSC753686), talazoparib (NSC767125), alisertib (NSC759677), peposertib (NSC802822), gemcitabine (NSC613327), 5-fluorouracil (NSC19893), SN-38 (NSC673596), oxaliplatin (NSC266046), paclitaxel (NSC125973), and doxorubicin (NSC123127), were obtained from the National Cancer Institute (NCI) Developmental Therapeutics Program Chemical Repository. The FDA-approved anticancer drug set is available from the Developmental Therapeutics Program at https://dtp.cancer.gov/organization/dscb/obtaining/available plates.htm. […] The stock solutions were prepared in dimethyl sulfoxide (DMSO, Sigma-Aldrich, St. Louis, MO, cat. D2650), except for the platinum complexes which were prepared in saline (Quality Biological, Gaithersburg, MD, cat. 114-055-101), at 800-fold the tested concentration and stored at -70 degrees C prior to their use. All drugs and investigational agents were tested over a range starting from a high concentration at or near the clinical Cmax and decreasing in half-log increments. If the clinical Cmax for an agent had not been determined, the highest concentration tested was 10 microM.
Cell Culture. All cells were maintained in an incubator at 37 degrees C and 5% CO2 with 95% humidity. The PDC lines were cultured according to standard operating procedures established by the NCI PDMR. Briefly, all PDCs were thawed and cultured in Matrigel-coated flasks prepared with a working solution of 1X Ham's F-12 nutrient mix, without supplementation (Invitrogen, Waltham, MA, cat. 11765054), 100 U/mL penicillin-streptomycin (Invitrogen, cat. 15140122), and 2.5% Matrigel (Corning Inc., Corning, NY, cat. 354248) for the first three passages. The 947758-054-R-J2-PDC line was cultured in 6B/Colon 1A media, which includes advanced DMEM/F-12 (Thermo Fisher Scientific, cat. 12634028), 10 mM HEPES (Thermo Fisher Scientific, cat. 15630080), 1X GlutaMAX supplement (Thermo Fisher Scientific, cat. 35050061), 0.1 mg/mL primocin (InvivoGen, cat. ant-pm-2), 10% defined fetal bovine serum, heat inactivated (HyClone Laboratories Inc., cat. SH30070.03HI), 1.25 mM N-Acetyl-L-cysteine (Sigma-Aldrich, cat. A9165), 10 mM nicotinamide (Sigma-Aldrich, cat. N0636), 1X B-27 supplement (Thermo Fisher Scientific, cat. 17504044), 1X N-2 supplement (Thermo Fisher Scientific, cat. 17502048), and 10 microM Y-27632 dihydrochloride (Tocris Bioscience, cat. 1254). The 876862-298-R-J1-PDC was cultured in 6E media, which includes all 6B/Colon 1A media components plus 50% L-WRN conditioned media (ATCC, cat. CRL-3276), 50 ng/mL recombinant human EGF recombinant protein (hEGF; Thermo Fisher Scientific, cat. PHG0311), 10 ng/mL recombinant human fibroblast growth factor 10 (hGFG-10; PeproTech, cat. 100-26), 1 ng/mL recombinant human fibroblast growth factor 2 (hFGF-2; PeproTech, cat. 100-18B), and 1 µM prostaglandin E2 (PGE2; Tocris, cat. 2296). The 227483-062-R1-J1-PDC line was cultured in Panc media, containing all 6E components except hFGF-2, with the addition of 500 nM SB-431542 (Selleckchem, cat. S1067) and 10 nM gastrin (Tocris, cat. 3006). […]
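Note: spheroids exposed to compounds for seven days before readout.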
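Throughout, for viability, T/C: 100% = DMSO vehicle control wells.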

Row | IC50 (curve of compound) | IC50 (compound alone, run of 09/18/2023) | SMILES | viability, T/C (compound 0.0316 µM) | viability, T/C (compound 0.1 µM) | viability, T/C (compound 0.316 µM) | viability, T/C (compound 1 µM) | viability, T/C (compound 3.16 µM) | viability, T/C (compound 10 µM)
1 | < 31.6 nM | – | CC(=O)O[C@H]1C(=O)[C@@]2(C)[C@H]([C@H](OC(=O)c3ccccc3)[C@]3(O)C[C@H](OC(=O)[C@H](O)[C@@H](NC(=O)c4ccccc4)c4ccccc4)C(C)=C1C3(C)C)[C@]1(OC(C)=O)CO[C@@H]1C[C@@H]2O | 35.4% and 37% | 33.6% and 37% | 31% and 30.4% | 25.1% and 34.2% | 32.1% and 36.1% | 32.5% and 47.5%
2 | 418 nM and 264 nM | – | CC(Nc1ccc2c(c1)OCCn1cc(N3C(=O)OCC3C(F)F)nc1-2)C(N)=O (stereo unspecified) | 82.3% and 77.2% | 67.8% and 63.2% | 48% and 46.3% | 46.3% and 36.9% | 33.6% and 29.7% | 28.9% and 24%
3 | 7360 nM and 6720 nM | – | CC1(C)CCC(CN2CCN(c3ccc(C(=O)NS(=O)(=O)c4ccc(NCC5CCOCC5)c([N+](=O)[O-])c4)c(Oc4cnc5[nH]ccc5c4)c3)CC2)=C(c2ccc(Cl)cc2)C1 | 107% and 88.7% | 89.8% and 91.9% | 89.7% and 89.9% | 104% and 105% | 101% and 94.9% | 32.4% and 26.7%
4 | 4040 nM and 5180 nM | – | CC1COCCN1c1cc(C2(S(C)(=N)=O)CC2)nc(-c2ccnc3[nH]ccc23)n1 (stereo unspecified) | 96.7% and 86.2% | 110% and 86.8% | 98.8% and 87.7% | 72.7% and 79% | 58.1% and 61.5% | 34.3% and 34.9%
5 | – | 216 nM [middle of 10 runs] | CN1CCN(c2cc(C(=O)Nc3cc4cc(-c5cnn(C)c5)ccc4cn3)ccn2)CC1 | – | – | 17.4% [middle of 11 runs] | 3.28% [middle of 12 runs] | 2.39% [middle of 11 runs] | 1% [middle of 11 runs]
6 | 3550 nM and 4190 nM | – | COc1ccc([C@@H](O)c2cc(-c3ncnc4cc(N5CCOCC5)ccc34)c(F)cc2Cl)nn1 | 96.2% and 103% | 93.5% and 88.3% | 83.5% and 94.8% | 63.7% and 76.9% | 54.9% and 55.7% | 34.8% and 31.7%
7 | 266 nM and 257 nM | – | COc1cccc2c1C(=O)c1c(O)c3c(c(O)c1C2=O)CC(O)(C(=O)CO)CC3OC1CC(N)C(O)C(C)O1 (stereo unspecified) | 75.6% and 69% | 76.5% and 74% | 43.8% and 43.9% | 14% and 12.3% | 0.38% and 0.72% | 0.37% and 0.77%
8 | 713 nM and 1280 nM | – | Nc1ccccc1NC(=O)c1ccc(CNC(=O)OCc2cccnc2)cc1 | 104% and 85.5% | 94.5% and 92.8% | 78.2% and 73.5% | 35.4% and 61.1% | 20% and 20.5% | 3.38% and 10.9%
9 | < 31.6 nM | – | Nc1ccn(C2OC(CO)C(O)C2(F)F)c(=O)n1 (stereo unspecified) | 32.7% and 37.1% | 24.5% and 31.8% | 20.6% and 26.5% | 24.4% and 28% | 21.4% and 36.8% | 22% and 27.7%
